Assay in all cases: NCI tumour cell line growth inhibition, 48 h
Test [1] relates to HOP-92 NSCLC.
For test [2], the system named is SK-MEL-2 melanoma.
Test [3] concerns RXF 393 renal.
For test [4], the system named is M14 melanoma.
Test [5] has as its system A498 renal.
In test [6] the test system is PC-3 prostate.
Test [7] has as its system HOP-62 NSCLC.
The test system of test [8] is CAKI-1 renal.
Test [9] concerns NCI-H460 lung.
In test [10] the test system is UACC-62 melanoma.
Test [11] relates to LOX IMVI melanoma.
For test [12], the system named is 786-0 renal.
In test [13] the test system is T-47D breast.
Test [14] has as its system UACC-257 melanoma.
In test [15] the test system is ACHN renal.
For test [16], the system named is HL-60(TB) leukemia.

Each structure is given as a SMILES string. “And” between values parts separate entries of the source, which are not always exact repeats. Equal entries are not always repeated.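 Five concentrations, 48 hours, 96-well plates. Here, GI50 denotes the concentration required for 50% inhibition of growth. TGI: total growth inhibition.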

Regarding `C=C(C)[C@H]1C=C[C@@H](OC(=O)c2cccnc2)[C@@]23CO[C@@](C)([C@H](OC(=O)c4cccnc4)[C@@]4(OC(C)=O)C[C@H](C)[C@H](OCCC)[C@@H]4[C@H]2OC(C)=O)[C@H]13`, the TGI in test [1], in [2], in [3], in [4], in test [5] and in [6] was over 15 µM throughout. For the same molecule, the TGI in test [7], in test [8], in test [9], in test [10], in test [11] and in test [12] was over 15 µM each time. Further, the TGI in test [13] is over 15 µM; in test [14], over 15 µM; in test [15], over 15 µM; in [16] it was 14.1 µM.

Take `NCCN1C(=O)CN=C(c2ccc(Cl)cc2)c2cc(Cl)ccc21`: the TGI in [1] was found to be 39.7 µM; in test [2], 31.8 µM; in test [3], 24.5 µM; in test [4], 30.3 µM; in test [5], 33.8 µM; in [6] it was 30.1 µM. In addition, the TGI turned out to be 31.8 µM in test [7]; 32 µM in [8]; 34.4 µM in [9]; 32.2 µM in test [10]; 32.4 µM in test [11]; 30.4 µM in test [12]. Besides, the TGI in test [13] is 59.3 µM; in [14], 34.9 µM; in [15], 33 µM; in [16], 37.7 µM.

`O=P1(Oc2ccccc2)N(CCCl)CCN1c1ccccc1` (stereo not given): the TGI in [1], in test [2], in test [3], in test [4], in test [5] and in test [6] was over 100 µM each time. The TGI in [7], in [8], in [9], in [10], in test [11] and in test [12] was over 100 µM in each case. Also, the TGI in test [13], in test [14], in test [15] and in test [16] was over 100 µM in each case.

On to `Cc1ccc(Nc2c(C#N)[n+]([O-])c3cc(Cl)ccc3[n+]2[O-])cc1`, for which the TGI in test [1], in test [2], in test [3], in test [4], in test [5] and in test [6] was over 100 µM in each case. For the same molecule, the TGI in test [7], in test [8], in test [9], in [10], in [11] and in test [12] was over 100 µM each time. In addition, the TGI in test [13] is over 100 µM; in test [14] it was over 100 µM; in test [15], over 100 µM; in test [16], 21.1 µM.

On to `CC(=O)Nc1cc2c3c(c1)CCCN3CCC2`, for which the TGI in test [1], in [2], in test [3], in test [4], in test [5] and in test [6] was over 100 µM each time. Further, the TGI in [8], in test [9], in test [10], in test [11], in [12] and in test [13] was over 100 µM each time. Further, the TGI in test [14], in [15] and in test [16] was over 100 µM throughout.

As for `c1cc2c(c(NC3=NCCO3)c1)CCC2`, the TGI in test [1], in [2], in [3], in test [4], in [5] and in test [6] was over 100 µM throughout. The TGI in test [7], in test [8], in [9], in test [10], in [11] and in test [12] was over 100 µM each time. Moreover, the TGI in test [13], in test [14], in test [15] and in [16] was over 100 µM throughout.

With `CCCCCCOc1ccc(C(=O)NO)cc1`, the TGI in test [1] was 40 µM; in test [2] it was 39 µM; in test [3], 30.1 µM; in test [4] it was 34 µM; in test [5] it was 28.1 µM; in test [6], 35.2 µM. Besides, the TGI in test [7] turned out to be 38.4 µM; in test [8] it was 19.2 µM; in test [9] it was 20.8 µM; in test [10] it was 20.6 µM; in test [11], 20.7 µM; in test [12], 16.6 µM. For the same molecule, the TGI in test [13] was 41.3 µM; in test [14], over 91.5 µM; in [15] it was 21.5 µM; in test [16] it was 14 µM.

`Nc1ccn(C2CCC(CO)O2)c(=S)n1` (stereo not given): the TGI in [1], in test [2], in [3], in test [4], in [5] and in test [6] was over 100 µM each time. Also, the TGI in test [7], in [8], in test [9], in test [10], in test [11] and in test [12] was over 100 µM in each case. Also, the TGI in test [13], in test [14], in test [15] and in test [16] was over 100 µM throughout.

For `CCC[C@H](NS(=O)c1ccc(C)cc1)C(C(=O)OCC)=C(c1ccccc1)c1ccccc1` (stereo not given in full), the TGI in test [1] turned out to be 33 µM; in test [2] it was 31.7 µM; in test [3], 29.6 µM; in [4], 51.2 µM; in [5], 46 µM; in test [6], 50.7 µM. In addition, the TGI worked out at 36.4 µM in test [7]; 35.6 µM in [8]; 36.5 µM in test [9]; 31.5 µM in [10]; 33.6 µM in [11]; 35.9 µM in test [12]. Also, the TGI in test [13] was 88.6 µM; in [14], 33.5 µM; in test [15], 60.8 µM; in test [16] it was over 100 µM.

On to `COc1cc(S(=O)(=O)Nc2ccc(-c3csc(N)n3)cc2)ccc1Cl`, for which the TGI in [1] was found to be 39.5 µM; in test [2], 35 µM; in [3], 33.8 µM; in test [4], 35 µM; in test [5], 59.2 µM; in test [6] it was 29.7 µM. Further, the TGI in [8] is 45 µM; in test [10], 30 µM; in [11] it was 34.8 µM; in test [12] it was 30 µM; in test [13] it was 23 µM; in [15], 32.8 µM. Besides, in test [16], the TGI is 43.6 µM.

As for `CC(C)NC(=O)OCc1c(COC(=O)NC(C)C)c(-c2cc[n+](COC(=O)C(C)(C)C)cc2)n2c1CCC2`, the TGI in test [1], in test [2], in test [3], in [4], in test [5] and in test [6] was over 100 µM throughout. For the same molecule, the TGI in [7], in test [8], in test [9], in test [10], in test [11] and in [12] was over 100 µM in each case. Moreover, the TGI in [13], in test [14], in test [15] and in [16] was over 100 µM each time.

`CC(=O)Nc1ccc(-c2nc3ccccc3s2)cc1I`: the TGI in [1] was over 88.9 µM; in test [2], over 100 µM; in [3] it was 37 µM; in test [4] it was over 87.7 µM; in test [5] it was 36.3 µM; in test [6], over 100 µM. In addition, the TGI is 39 µM in test [7]; over 100 µM in test [8]; over 100 µM in [9]; over 76.9 µM in test [10]; over 81.7 µM in test [11]; 44.5 µM in [12]. Further, the TGI was over 93.2 µM in test [13], over 100 µM in test [14], over 100 µM in [15] and over 100 µM in test [16].

For the molecule `COCCCNC(=O)C1=C(C)NC(C)=C(C(=O)NCCCOC)C1`, the TGI in test [1], in test [2], in [3], in test [4], in [5] and in [6] was over 100 µM in each case. In addition, the TGI in [7], in [8], in test [9], in test [10], in test [11] and in [12] was over 100 µM in each case. For the same molecule, the TGI in test [13], in test [14], in test [15] and in test [16] was over 100 µM each time.

As to `O=C(c1ccccc1)c1ccc(-n2c3ccccc3c3ccc4c(c32)C(=O)C=CC4=O)cc1`, the TGI was 18.6 µM in test [1]; 37.3 µM in [2]; 19.2 µM in [3]; 23.6 µM in test [4]; 25.3 µM in [5]; 25.8 µM in test [6]. In addition, the TGI in [7] is 33.6 µM; in test [8], 4.4 µM; in test [9], 36.2 µM; in test [10], 26.7 µM; in test [11], 16.3 µM; in [12], 5.77 µM. Moreover, the TGI in test [13] was over 22.6 µM; in [14], 27.5 µM; in [15] it was 11.6 µM; in [16], 18.2 µM.

As for `Cc1nc2c(=O)n(-c3ccccc3)c3ccccc3c2o1`, the TGI in test [1], in test [2], in [3], in [4], in test [5] and in test [6] was over 100 µM throughout. For the same molecule, the TGI in test [7], in test [8], in [9], in test [10], in test [11] and in test [12] was over 100 µM throughout. Further, the TGI in test [13], in [14], in test [15] and in [16] was over 100 µM in each case.

Consider `COc1ccc2[nH]cc([C@@H]3C4CCC(C4)[C@H]3NCc3cccc(CN[C@H]4C5CCC(C5)[C@@H]4c4c[nH]c5ccc(OC)cc45)c3)c2c1`, for which the TGI in test [1] is 2.6 µM and 2.59 µM; in test [2] it was 2.91 µM and 2.99 µM; in test [3], 3.1 µM and 2.79 µM; in test [4], 1.41 µM and 1.5 µM; in test [5] it was 3.22 µM and 3.25 µM; in [6] it was 2.93 µM and 2.59 µM. Moreover, the TGI in test [7] is 2.89 µM and 2.97 µM; in test [8] it was 2.79 µM and 3.21 µM; in test [9] it was 0.556 µM and 1.12 µM; in test [10], 3.19 µM; in test [11] it was 0.328 µM and 0.605 µM; in test [12], 1.9 µM and 2 µM. In addition, the TGI was 2.95 µM in test [13]; 3.15 µM and 2.74 µM in [14]; 2.55 µM and 3.16 µM in [15]; 0.453 µM and 0.503 µM in [16]. The GI50 is 0.423 µM in test [4], 0.184 µM in test [11] and 1.33 µM in test [13].

As to `O=c1[nH]nc(Cc2ccccc2)n1/N=C\c1ccccc1`, the TGI in test [1], in test [2], in [3], in test [5], in test [6] and in test [7] was over 100 µM throughout. The TGI in test [8], in test [9], in test [10], in test [11], in test [12] and in test [13] was over 100 µM throughout. The TGI in test [14], in test [15] and in test [16] was over 100 µM in each case.

Source of the values: PubChem BioAssay (NCI).
